From ChEMBL document CHEMBL1177644, “16-bromoepiandrosterone, an activator of the mammalian immune system, inhibits glucose 6-phosphate dehydrogenase from Trypanosoma cruzi and is toxic to these parasites grown in culture” (Bioorg Med Chem, 2010)

How the values were obtained:
[1] = Inhibition of His-tagged Trypanosoma cruzi G6PDH expressed in Escherichia coli BL21 by spectrophotometry
Trypanosoma cruzi = experiment: Antitrypanosomal activity against Trypanosoma cruzi Y epimastigotes assessed as viability after 72 hrs by MTS assay; format: functional; conditions: read-out: LD50 (the source's name)

Q: Which IC50 [1] does the source give for `C[C@]12CC[C@H](O)CC1=CC[C@@H]1[C@@H]2CC[C@]2(C)C(=O)CC[C@@H]12` [PRASTERONE] here?
A: 25000 nM

Q: What does the source list for `C[C@]12CC[C@H](O)CC1=CC[C@@H]1[C@@H]2CC[C@]2(C)C(=O)[C@H](Br)C[C@@H]12`?
A: IC50 [1]: 216 nM; LC50 (Trypanosoma cruzi): 20.6 µM

Q: With `C[C@]12CC[C@H](O)C[C@@H]1CC[C@@H]1[C@@H]2CC[C@]2(C)C(=O)CC[C@@H]12` [EPIANDROSTERONE] as the compound, how does the IC50 [1] read?
A: 5600 nM

Q: And the LC50 (Trypanosoma cruzi)?
A: 36.5 µM

Q: With `C[C@]12CC[C@H](O)C[C@@H]1CC[C@@H]1[C@@H]2CC[C@]2(C)C(=O)[C@H](Br)C[C@@H]12` [16.ALPHA.-BROMOEPIANDROSTERONE] as the compound, how does the IC50 [1] read?
A: 86 nM

Q: What about the LC50 (Trypanosoma cruzi) of the same compound?
A: 12.4 µM
